Our source for the IC50 and AC50 values is US20220306653A1, “MACROCYCLIC INHIBITORS OF MCL-1” (Janssen Pharmaceutica NV, priority 2019, published 2022).

Assay [1] concerns Molp8 multiple myeloma cell line. Nature of the assay: Molp8 multiple myeloma cell line survival assay using Annexin V and 7AAD. The class given is cell-based, human. The following applies: live cell percent by Annexin V/7AAD flow cytometry, 3 days incubation, each independent run listed individually, read-out: MOLP8 Apoptosis IC50. The source says: Molp8 multiple myeloma cell line survival assay using Annexin V and 7AAD.
The Annexin V/7AAD principle is based on the location of phosphatidylserine in the plasma membrane and the integrity of the membrane barrier. During early apoptosis, phosphatidylserine loses its normal distribution patterns in the inner leaflet of the plasma membrane and appears on the exterior of the plasma membrane. Annexin proteins are calcium dependent phospholipid binding proteins and can bind phosphatidylserine on the outer membrane during cell death. The viability dye 7AAD is excluded from entering cells with intact plasma membranes but accumulates in cells that have lost membrane integrity. Annexin Fitc is excited by the 488 nm laser (max excitation: 490 nm, max emission: 525 nm) as is 7AAD (excitation: 488 nm, emission: 650 nm), which allows this assay to be completed on any multicolor flow cytometer.
The assay conditions were optimized using the following 1× reaction buffer: 5 mM HEPES (4-(2-hydroxyethyl)-1-piperazineethanesulfonic acid), 70 mM NaCl, 1.25 mM CaCl2, pH 7.4.
The Molp 8 cells were multiple myeloma, human, in suspension (*cells were counted 2× per week and culture density maintained between 0.5 and 1.5×10^6 cells per ml).
On Day 1, 5×10^4 live cells per well were plated in a 96-well U-bottom plate, with the cells plated in 100 uL RPMI+10% FBS. An 11-point compound dilution plate was prepared in 3-fold steps (Final concentration range 10 μM-0.1 nM) and added at a concentration of 1 μL per well. The plate was then incubated for 3 days at 37° C. and 5% CO2.
On Day 4, the cells were pelleted and the media discarded. The cells were then resuspended in 50 μL AnnexinV-Fitc (1:40 dilution) and 7AAD (1:100 dilution) in Annexin binding buffer, then incubated for 30 min @ room temperature in the dark. 50 μL binding buffer (100 uL total volume) was then added to the cells. There was no wash step required.
Within 2 hours, PeCy5 (7AAD) and Fitc (Annexin) channels were recorded using BD Canto, collecting a minimum per singlet of 10,000 events.
The activity of a test compound was calculated based on the live cell percentage. • LC=Median of the low control values • =Low control: cells without treatment (no greater than 100% live) • HC=Median of the high control values • =High control: cells treated with 10 uM drug (no less than 0% live)
A best-fit curve was fitted by a minimum sum of squares method to the plot of live cell percent vs. compound concentration. From this an IC50 value (inhibitory concentration causing 50% cytotoxicity) was obtained. An estimate of the slope of the plot in terms of the Hill coefficient was also obtained.
A general note: In flow cytometry, cells or beads pass a laser one at a time.

For a further assay, the system named is MOLP8 cells. The assay is described as follows: MOLP8 CellEvent Caspase-3/7 Green apoptosis activation assay (IncuCyte live-cell kinetic readout). The class given is cell-based. The following applies: each independent run listed. On the procedure:
MCL-1 is a regulator of apoptosis and is highly over-expressed in tumor cells that escape cell death. The assay evaluates the cellular potency of small-molecule compounds targeting regulators of the apoptosis pathway, primarily MCL-1, Bfl-1, Bcl-2, and other proteins of the Bcl-2 family. Protein-protein inhibitors disrupting the interaction of anti-apoptotic regulators with BH3-domain proteins initiate apoptosis.
Activation of the apoptotic pathway was measured using the CellEvent™ Caspase-3/7 Green ReadyProbes™ Reagent (Thermo Fisher C10423, C10723). This assay produces a green fluorescent stain in cells that enter the apoptosis pathway. CellEvent® Caspase-3/7 Green reagent is a four amino acid peptide (DEVD) conjugated to a nucleic acid-binding dye that is non-fluorescent when not bound to DNA. The CellEvent® Caspase-3/7 Green reagent is intrinsically non-fluorescent, as the DEVD peptide inhibits binding of the dye to DNA. Upon activation of caspase-3/7 in apoptotic cells, the DEVD peptide is cleaved and the free dye can bind DNA, generating a bright green fluorescence. The activation of Caspase-3 and Caspase-7 is downstream of inhibition of MCL-1 or other apoptosis inhibiting proteins in cell lines that are dependent on them.
The live-cell readout on the IncuCyte permits tracking over time of the Caspase activation. […] The IncuCyte readout also allows one to normalize for cell number, as the suspension cells are hard to distribute evenly.
Signals were measured every 2 h for a duration of 22 h. The ratio of the Caspase mask to the Confluence mask, per image, as raw data, was calculated and the kinetic trace for every well was exported to Genedata Screener for analysis.
In Genedata Screener values for 6 h, 12 h, and 22 h from the kinetic traces were extracted. The values were normalized against negative controls (untreated cells). A standard dose-response analysis was performed on the normalized data.
The following data was reported at each of the following three aforementioned time points: (a) The dose-response curve, (b) The qAC50 and qAC50 Mode, and (c) Max Activity.
Cells were maintained in culture medium containing 10% Heat Inactivated (HI) FBS, 2 mM L-Glutamine and 50 µg/mL Gentamycin phenol red free RPMI-1640. Cells were split at 0.4 million/mL twice a week.
On Day 1, plates containing individual wells with test compounds at 10 mM concentration, 150 nL per well. The final concentrations range from […] compound (and no compound control) and compounds were thawed at room temperature for 1 hour. 25 μl of prewarmed medium was added into each well by multidrop (column 1, 3-22, 24), followed by addition of DMSO control (0.6% DMSO) in column 2. The plate was sealed using Breathe-Easy® sealing membrane and shaken for 30 min at room temperature to dissolve the test compound(s) in medium. The plate was then kept in the incubator for 1 hour at 37° C., 5% CO2.
MOLP8 cells in medium at […] (20000/50 μl final in assay) were prepared with CellEvent™ Caspase-3/7 Green Detection Reagent at 4 μM (2 μM final in assay). Once prepared, the cells were added to the test compound plate in an amount of 20000 and the plate was immediately placed in the IncuCyte and imaging started using following settings: 10× objective, 2 s exposure time in green channel, interval of 2 h, acquisition stopped after 22 h.
For analysis in IncuCyte, a Basic Analysis protocol was defined to calculate the “confluence” and “caspase” areas from the “Phase” and “green” images, respectively, as follows: (a) Confluence: Segmentation Adjustment 1, Hole Fill 0, Adjust Size −2, No filters (b) Caspase: Top-Hat segmentation, Radius 10, Threshold 0.3 GCU, Edge Split On with sensitivity 0, Hole Fill 0, Adjust Size 1, and filter on a minimum Area of 20 μm^2. The analyzer is trained on a sufficient number of positive and negative control wells, as well as compound treated wells, verifying that the “confluence” layer detects both live and dead (condensed) cells. […]

Values joined by “and” are separate entries in the source; they are usually repeats but may differ in a detail not shown here. Equal values may be shown once. Read-outs that look alike come from different tables or passages of the source.

The IC50 is the concentration that gives 50% inhibition. For `Cc1c(C(=O)O)n2c3ccc(Cl)c(c13)-c1c(nn(C)c1C)CN(C)Cc1cc(n(C)n1)CSc1cc(c3ccccc3c1)OCCC2` [Compound 3, 15-chloro-13,21,25,61,4-pentamethyl-11H,21H,61H-10-oxa-8-thia-4-aza-1(4,1)-indola-2(4,3),6(3,5)-dipyrazola-9(3,1)-naphthalenacyclotridecaphane-12-carboxylic acid], the IC50 in assay [1] (Homo sapiens, MOLP-8, 72 h) was 200 nM; in assay [1] it was 256 nM. Besides, the AC50 is 178 nM and 251 nM in the assay with MOLP8 cells (6 h, read-out: MOLP8 Caspase 3/7 AC50 at 6 h); 263 nM and 195 nM in the assay on MOLP8 cells (12 h, read-out: MOLP8 Caspase 3/7 AC50 at 12 h); 347 nM in the assay with MOLP8 cells (Homo sapiens, MOLP-8, 6 h, 6 h, read-out: MOLP8 Caspase 3/7 AC50 at 6 h); 363 nM with MOLP8 cells (Homo sapiens, MOLP-8, 12 h, 12 h, read-out: MOLP8 Caspase 3/7 AC50 at 12 h).
